From PubChem BioAssay (NCI)
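At the GI50, growth is halved. At the TGI there is no net growth.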

Key:
Assay in all cases: inhibition of tumour cell growth, NCI panel, 384-well format
DU-145 prostate = tested on: DU-145 prostate
HCT-116 colon = tested on: HCT-116 colon
RXF 393 renal = tested on: RXF 393 renal
NCI-H23 lung = tested on: NCI-H23 lung
SNB-75 CNS = tested on: SNB-75 CNS
OVCAR-8 ovarian = tested on: OVCAR-8 ovarian
LOX IMVI melanoma = tested on: LOX IMVI melanoma
NCI/ADR-RES ovarian = tested on: NCI/ADR-RES ovarian
OVCAR-3 ovarian = tested on: OVCAR-3 ovarian
EKVX NSCLC = tested on: EKVX NSCLC
UO-31 renal = tested on: UO-31 renal
HS 578T breast = tested on: HS 578T breast
SF-268 CNS = tested on: SF-268 CNS
HCC-2998 colon = tested on: HCC-2998 colon
SK-OV-3 ovarian = tested on: SK-OV-3 ovarian
UACC-257 melanoma = tested on: UACC-257 melanoma
M14 melanoma = tested on: M14 melanoma
ACHN renal = tested on: ACHN renal
IGROV1 ovarian = tested on: IGROV1 ovarian
U251 glioblastoma = tested on: U251 glioblastoma
BT-549 breast = tested on: BT-549 breast
MDA-MB-231 breast = tested on: MDA-MB-231 breast
NCI-H460 NSCLC = tested on: NCI-H460 NSCLC
HCT-15 colon = tested on: HCT-15 colon
SK-MEL-2 melanoma = tested on: SK-MEL-2 melanoma
MALME-3M melanoma = tested on: MALME-3M melanoma
CAKI-1 renal = tested on: CAKI-1 renal
A549 NSCLC = tested on: A549 NSCLC
SR leukemia = tested on: SR leukemia
SN12C renal = tested on: SN12C renal
KM12 colon = tested on: KM12 colon
UACC-62 melanoma = tested on: UACC-62 melanoma
SF-295 CNS = tested on: SF-295 CNS
HOP-92 NSCLC = tested on: HOP-92 NSCLC
SK-MEL-5 melanoma = tested on: SK-MEL-5 melanoma
HL-60(TB) leukemia = tested on: HL-60(TB) leukemia
CCRF-CEM leukemia = tested on: CCRF-CEM leukemia
T-47D breast = tested on: T-47D breast
SW-620 colon = tested on: SW-620 colon
MDA-MB-468 breast = tested on: MDA-MB-468 breast
A498 renal = tested on: A498 renal
786-0 renal = tested on: 786-0 renal
RPMI-8226 leukemia = tested on: RPMI-8226 leukemia
OVCAR-4 ovarian = tested on: OVCAR-4 ovarian
K-562 leukemia = tested on: K-562 leukemia
NCI-H322M lung = tested on: NCI-H322M lung
TK-10 renal = tested on: TK-10 renal

Structure (SMILES): O=c1[nH]nc2c3c(cccc13)NC(CN1Cc3ccccc3C1)=N2
- GI50 (DU-145 prostate): 2960 nM
- TGI (DU-145 prostate): 24.1 µM
- GI50 (HCT-116 colon): 8.67 µM
- TGI (HCT-116 colon): > 100 µM
- GI50 (RXF 393 renal): 2260 nM
- TGI (RXF 393 renal): 7.28 µM
- GI50 (NCI-H23 lung): 2270 nM
- TGI (NCI-H23 lung): 15.3 µM
- GI50 (SNB-75 CNS): 2320 nM
- TGI (SNB-75 CNS): 18.9 µM
- GI50 (OVCAR-8 ovarian): 5.38 µM
- TGI (OVCAR-8 ovarian): > 100 µM
- GI50 (LOX IMVI melanoma): 6.61 µM
- TGI (LOX IMVI melanoma): > 61.4 µM
- GI50 (NCI/ADR-RES ovarian): 9.41 µM
- TGI (NCI/ADR-RES ovarian): > 100 µM
- GI50 (OVCAR-3 ovarian): 3.75 µM
- TGI (OVCAR-3 ovarian): > 88.3 µM
- GI50 (EKVX NSCLC): 3.1 µM
- TGI (EKVX NSCLC): > 100 µM
- GI50 (UO-31 renal): 11.4 µM
- TGI (UO-31 renal): > 100 µM
- GI50 (HS 578T breast): 5.78 µM
- TGI (HS 578T breast): > 100 µM
- GI50 (SF-268 CNS): 4.68 µM
- TGI (SF-268 CNS): 37.2 µM
- GI50 (HCC-2998 colon): 3.34 µM
- TGI (HCC-2998 colon): 17.9 µM
- GI50 (SK-OV-3 ovarian): 3.49 µM
- TGI (SK-OV-3 ovarian): > 62.2 µM
- GI50 (UACC-257 melanoma): > 100 µM
- TGI (UACC-257 melanoma): > 100 µM
- GI50 (M14 melanoma): 6.09 µM
- TGI (M14 melanoma): > 100 µM
- GI50 (ACHN renal): 5.5 µM
- TGI (ACHN renal): > 78.1 µM
- GI50 (IGROV1 ovarian): 3.55 µM
- TGI (IGROV1 ovarian): 70.6 µM
- GI50 (U251 glioblastoma): 7.61 µM
- TGI (U251 glioblastoma): > 100 µM
- GI50 (BT-549 breast): 6.22 µM
- TGI (BT-549 breast): 39.7 µM
- GI50 (MDA-MB-231 breast): 2810 nM
- TGI (MDA-MB-231 breast): 14.5 µM
- GI50 (NCI-H460 NSCLC): 5.18 µM
- TGI (NCI-H460 NSCLC): > 71.8 µM
- GI50 (HCT-15 colon): 8.44 µM
- TGI (HCT-15 colon): > 100 µM
- GI50 (SK-MEL-2 melanoma): > 87.1 µM
- TGI (SK-MEL-2 melanoma): > 100 µM
- GI50 (MALME-3M melanoma): 6 µM
- TGI (MALME-3M melanoma): > 100 µM
- GI50 (CAKI-1 renal): 2030 nM
- TGI (CAKI-1 renal): > 100 µM
- GI50 (A549 NSCLC): 5.19 µM
- TGI (A549 NSCLC): 67.5 µM
- GI50 (SR leukemia): 2360 nM
- TGI (SR leukemia): 8.2 µM
- GI50 (SN12C renal): 4.09 µM
- TGI (SN12C renal): > 39.4 µM
- GI50 (KM12 colon): 6.04 µM
- TGI (KM12 colon): > 62.4 µM
- GI50 (UACC-62 melanoma): 7.14 µM
- TGI (UACC-62 melanoma): > 100 µM
- GI50 (SF-295 CNS): 10.7 µM
- TGI (SF-295 CNS): > 100 µM
- GI50 (HOP-92 NSCLC): 2500 nM
- TGI (HOP-92 NSCLC): 16.9 µM
- GI50 (SK-MEL-5 melanoma): 3.42 µM
- TGI (SK-MEL-5 melanoma): > 56.2 µM
- GI50 (HL-60(TB) leukemia): 12.9 µM
- TGI (HL-60(TB) leukemia): > 100 µM
- GI50 (CCRF-CEM leukemia): 3.91 µM
- TGI (CCRF-CEM leukemia): 15.2 µM
- GI50 (T-47D breast): 22.8 µM
- TGI (T-47D breast): > 100 µM
- GI50 (SW-620 colon): 8.37 µM
- TGI (SW-620 colon): > 100 µM
- GI50 (MDA-MB-468 breast): 2220 nM
- TGI (MDA-MB-468 breast): 9.99 µM
- GI50 (A498 renal): 3.21 µM
- TGI (A498 renal): 12.4 µM
- GI50 ([…]-0 renal): 5.12 µM
- TGI (786-0 renal): > 67.4 µM
- GI50 (RPMI-8226 leukemia): 13.8 µM
- TGI (RPMI-8226 leukemia): > 100 µM
- GI50 (OVCAR-4 ovarian): 2140 nM
- TGI (OVCAR-4 ovarian): 12 µM
- GI50 (K-562 leukemia): 7.51 µM
- TGI (K-562 leukemia): > 100 µM
- GI50 (NCI-H322M lung): 5.1 µM
- TGI (NCI-H322M lung): > 45.7 µM
- GI50 (TK-10 renal): 2700 nM
- TGI (TK-10 renal): 17.1 µM
